Key:
sheep erythrocytes = assay: hemagglutination inhibition of sheep erythrocytes; type: cell-based
[1] = test system: E. coli strain mutated in its mannose binding protein (FimH); assay: fluorescent staining / clustering of FimH mutant (non-mannose binding) E. coli; type: cell-based; settings: 30 minutes, OD600 1.0, washed twice with PBS
Description: (§1) Two bacterial strains that differed only in their mannose binding properties were used to assess whether the mannosylated PPE 22a could fluorescently stain E. coli. In addition to a strain that binds to mannose, a second strain that is mutated in its mannose binding protein (FimH) to abolish mannose binding was used. The non-functionalized polymer 21, the mannosylated polymer 22a, and 2′-fluorescein aminoethyl mannoside were individually incubated with these bacterial strains. After incubating a 1 ml bacterial suspension at an OD600 of 1.0 with the appropriate polymer or dye labeled mannose for 30 minutes, the suspensions were centrifuged to pellet the cells. The supernatant solution containing unbound polymer or dye labeled mannose was discarded and the cells were washed twice with phosphate buffered saline (PBS, pH 7.2). The bacteria were then resuspended in PBS. […]
(§2) Binding of mannosylated polymer to bacteria was imaged using laser scanning confocal microscopy and fluorescence microscopy. […]
(§3) FIGS. 8A-8B illustrate laser scanning confocal microscopy images. […] FIG. 8D is a conventional fluorescence spectra of polymer 22a in PBS (solid line) and normalized fluorescence spectra of a bacterial cluster obtained using confocal microscopy (dotted line).

[2] = test system: mannose binding (wild type) E. coli strain; assay: fluorescent staining / clustering of mannose binding (wild type) E. coli; type: cell-based; settings: 30 minutes, OD600 1.0, washed twice with PBS
Description: as §1, §2, §3

[3] = Stern-Volmer quenching of polymer 1 by streptavidin-free dyes; type: binding; settings: free dye added to polymer 1, 50 mM Tris buffer pH 7.4
Description: This mechanism generally requires fairly close proximity between the donor and acceptor chromophores. To study these interactions, the Stern-Volmer (KSV) quenching constants were determined from fluorescence emission and lifetime measurements in 50 mM Tris buffer at pH 7.4. Upon the addition of the streptavidin-free fluorescent dyes (fluorescein, RhB, and sulforhodamine 101, the Texas Red™ parent dye) to polymer 1, the apparent KSV values were determined to be 26,300 M^−1, 91,800 M^−1 and 97,900 M^−1, respectively. […] The dyes therefore may have an inherent affinity for the conjugated polymer backbone. A more planar conformation and greater hydrophobic character for Texas Red™, compared to RhB and fluorescein, may permit better stacking and orbital interaction with the CP backbone, allowing for greater DET. In the case of dye-labeled streptavidin, biological recognition first may bring the dyes into closer proximity with the polymer. Conformational and hydrophobic characteristics of the dyes then may tailor the extent of orbital mixing with the polymer: the flatter Texas Red™ may interact more intimately with the planar conjugated polymer backbone then the other dyes. This may favor DET and can explain the better ET that was observed, even at decreased spectral overlap between the CP donor and dye acceptor.

[4] = thin film (solid phase) energy transfer / dye association assay; type: binding; settings: for association of free dye with polymer thin films: polymers 3 and 4, thin films
Description: Thin film experiments with polymers 3 and 4 were also conducted in this example. Incubation with the dye-labeled streptavidin was performed in the presence of Triton X-100, a non-ionic detergent, to diminish non-specific binding. […] The spectra was scaled to 454 nm.
To perform energy transfer assays in solid phase, the following general protocol was used. The microscope coverslips were pretreated in 1,1,1,3,3,3-hexamethyldisilazane. The polymer solutions at 1 mg/ml in chloroform were spin-cast onto microscope coverslips at a spin rate of 3000 rpm for 1 minute. The coverslips were put under vacuum for 2 h, then were incubated in a solution of dye labeled streptavidin or dye for 1 h. The coverslips were then washed with deionized water, blotted dry and dried under vacuum for a minimum of 5 h. The excitation wavelength at 400 nm was chosen, and the emission spectrum was taken from 415 nm-700 nm.

Compound	INHIBITING DOSE (sheep erythrocytes)	apparent Stern-Volmer quenching constant KSV [3]	association of free dye with polymer thin films [4]	further results
2′-Fluorescein aminoethyl mannoside	0.01 M			binding / fluorescent labelling of E. coli after incubation, pelleting and washing [1]: Neither polymer 21 nor the 2′-fluorescein aminoethyl mannoside appeared to bind either E. coli strain; binding / fluorescent labelling of E. coli after incubation, pelleting and washing [2]: Neither polymer 21 nor the 2′-fluorescein aminoethyl mannoside appeared to bind either E. coli strain
NCCOC1O[C@H](CO)[C@@H](O)[C@H](O)[C@@H]1O (stereo partly drawn) [2′-Aminoethyl mannoside]	0.01 M			
CCN(CC)c1ccc2c(-c3ccccc3C(=O)O)c3ccc(=[N+](CC)CC)cc-3oc2c1.[Cl-] [RhB, rhodamine B]		91,800 M^−1	associated with both 3 and 4	
O=S(=O)([O-])c1cc(S(=O)(=O)O)ccc1C1=c2cc3c4c(c2Oc2c1cc1c5c2CCCN5CCC1)CCC[N+]=4CCC3 [sulforhodamine 101]		97,900 M^−1	associated with neither	
RhB-strept: rhodamine B-labeled streptavidin, about 4.6 dyes/protein				thin film ET of dye-labeled streptavidin ([4]; polymers 3 and 4, in the presence of Triton X-100): exhibited better ET than T-red-strept

Source: US8617819B2, “Polymers for analyte detection” (Massachusetts Institute of Technology, priority 2004, dated 2013)
